Experimental data published in patent US4613622A, “Sebosuppressive preparations containing benzyl alcohol derivatives” (Henkel Kommanditgesellschaft auf Aktien, priority 1983, dated 1986).

Key:
[1] = system: brown skin surface lipids of the rats; assay: Rat skin browning test for antiseborrheic (sebosuppressive) effect, visual assessment of shaved back; format: in vivo, male Wistar rats; settings: topical; for Evaluation of sebosuppressive effects, evaluation method 1 (examiners recognizing the treated side) / Evaluation of sebosuppressive effects, evaluation method 2 (difference between righthand and lefthand side) / Evaluation of sebosuppressive effects, evaluation method 3 (difference in intensity of brown shades vs control animals): once daily for a total of 9 days over 14 days; for Sebum reduction: points difference / points of control group
Source text: The antiseborrheic effect was closely studied using the animal tests described in the following: The test animals were male Wistar rats having a body weight of 220 to 230 g. The degree of browning on the shaved back of the rats was visually assessed. Browning is produced by the brown skin surface lipids of the rats. This test is based on the observation that young male and female rats washed with surfactant solution or with a lipid solvent and also male rats systematically treated with oestrogen have only the normal light, pick-colored skin after shaving. At the same time, only comparatively very small quantities of lipids can be extracted from shaved hairs. In order to assess effectiveness, the test substances in solution in alcohol were each brushed onto half the back of 6 rats. The other half was only treated with the solvent minus active substances. Over the test period of 14 days, the test substances were applied once daily for a total of 9 days. A group of 6 rats which remained completely untreated was used for further control. At the end of the test, the animals were shaved on their back and sides and were visually assessed independently by an examination panel of 6 people under double blind conditions. The first criterion evaluated was whether the majority of examiners correctly recognized the treated side, differentiation being carried out as follows: The second criterion evaluated was the difference between the righthand side and the lefthand side, each examiner having to award 1 point per animal on the following basis: Significant differences between the untreated and treated sides in the second method of evaluation indicated the local effectiveness of a substance. The third criterion evaluated was the difference in intensity between the shades of brown using the following scale: In the third method of evaluation, the total point differences are compared between the untreated control animals and the treated and untreated sides of the test animals, significant differences between the control animals and the treated side of the test animals again indicating the effectiveness of a substance. There is generally also a distinct difference between the untreated and treated sides of the same test animals. However, this difference is not always as clear as that between the control animals and the treated sides, for which there may be various reasons, such as mechanical transfer of substance from one side to the other or solvent influence. The following scheme was used for differentiating the effects according to evaluation methods 2 and 3: The sebum reduction is calculated from the points difference by working out the quotient between the points difference ΔP and the number of points for the control group Pk, and expressing the value obtained in percent. [formula] The benzyl alcohol derivatives were applied in the manner described in concentrations of 0.5 and 1.0% in alcohol/acetone (1:1).

[2] = system: secretion of the sebaceous glands; settings: known additives of U.S. Pat. No. 4,331,655 / German Patent Application 29 26 267; cited from earlier work

Row | Compound | Evaluation of sebosuppressive effects, evaluation method 1 (examiners recognizing the treated side) ([1]; 1.0% in alcohol/acetone (1:1)) | Evaluation of sebosuppressive effects, evaluation method 2 (difference between righthand and lefthand side) ([1]; 1.0% in alcohol/acetone (1:1)) | Evaluation of sebosuppressive effects, evaluation method 3 (difference in intensity of brown shades vs control animals) ([1]; 1.0% in alcohol/acetone (1:1)) | Sebum reduction ([1]; 1.0% in alcohol/acetone (1:1)) | antiseborrheic effect [2] | Evaluation of sebosuppressive effects, evaluation method 1 (examiners recognizing the treated side) ([1]; 0.5% in alcohol/acetone (1:1)) | Evaluation of sebosuppressive effects, evaluation method 2 (difference between righthand and lefthand side) ([1]; 0.5% in alcohol/acetone (1:1)) | Evaluation of sebosuppressive effects, evaluation method 3 (difference in intensity of brown shades vs control animals) ([1]; 0.5% in alcohol/acetone (1:1)) | Sebum reduction ([1]; 0.5% in alcohol/acetone (1:1))
1 | OCc1ccccc1 [Benzyl alcohol] | 0 (≥50%) | 0 (minimal (<95% probability)) | 0 (minimal (<95% probability)) | 0% | – | – | – | – | –
2 | CCOCC=C(C)CCC=C(C)CCC=C(C)C [3,7,11-tri:methyl-2,6,10-dodecatri:en-1-ol ethyl ether] | – | – | – | – | only a very weak antiseborrheic effect | – | – | – | –
3 | CCCCCCCCCCOCc1ccc(CO)cc1 [D, 4-decyloxymethylbenzyl alcohol] | – | – | – | – | – | ++ (100%) | ++ (very large (≥99.9% probability)) | ++ (very large (≥99.9% probability)) | 82%
4 | CCCCCCCCc1ccc(CO)cc1 [A, 4-octylbenzyl alcohol] | – | – | – | – | – | ++ (100%) | ++ (very large (≥99.9% probability)) | ++ (very large (≥99.9% probability)) | 94%
5 | OCc1ccc(-c2ccccc2)cc1 [E, 4-phenylbenzyl alcohol] | – | – | – | – | – | ++ (100%) | ++ (very large (≥99.9% probability)) | ++ (very large (≥99.9% probability)) | 72%
6 | CC(C)(C)c1ccc(CO)cc1 [F, 4-tert.-butylbenzyl alcohol] | ++ (100%) | ++ (very large (≥99.9% probability)) | ++ (very large (≥99.9% probability)) | 56% | – | – | – | – | –
7 | CCCCCCCCCCCCc1ccc(CO)cc1 [C, 4-dodecylbenzyl alcohol] | – | – | – | – | – | ++ (100%) | ++ (very large (≥99.9% probability)) | ++ (very large (≥99.9% probability)) | 32%
8 | CC(=O)OCC=C(C)CCC=C(C)CCC=C(C)C [3,7,11-tri:methyl-2,6,10-dodecatri:en-1-ol acetate] | – | – | – | – | only a very weak antiseborrheic effect | – | – | – | –
9 | CCCCCCCCCCc1ccc(CO)cc1 [B, 4-decylbenzyl alcohol] | – | – | – | – | – | ++ (100%) | ++ (very large (≥99.9% probability)) | ++ (very large (≥99.9% probability)) | 95%
